Measured values taken from patent US7355001B2, “Organic anion transport protein TCH229” (Takeda Pharmaceutical Company Limited, priority 2002, dated 2008).

Assays:
human TCH229 [1] = experiment: Expression of human TCH229 gene in RPTEC stimulated with stimulants (TaqMan PCR); assay type: cell-based; conditions: stimulant 10 ng/ml, 0.5-8 hours after addition
Procedure: (§1) (2) Preparation of cDNA from Normal Human Cells Stimulated with Various Stimulants a) Renal proximal tubular epithelial cell (RPTEC) and human renal cortical epithelial cell (HRCE) (both available from Cambrex BioScience Walkersvill) were plated on a 24-well collagen-coated plate in 1×10^5 cells/well and then cultured overnight, and after the medium was replaced by […] (T3)-free Bullet Kit REGM (BIO WHITTAKER), the cells were cultured for additional 30 minutes. b) As stimulants, TGF-β1 (Wako Pure Chemical Industries, Ltd.), TNF-α (Genzyme), IL-1β (Genzyme), IL-6 (Genzyme) and PMA (Wako Pure Chemical Industries, Ltd.) were used. A solution was prepared by diluting each of these 5 stimulants at the final concentration of 10 ng/ml with T3-free Bullet Kit REGM (BIO WHITTAKER). c) Just after the culture supernatants of the RPTEC and HRCE in the above item a) were removed, the solution prepared in the above item b) was added in a volume of 500 μl/well, and the cells were cultured. As the control, a mixture of the 5 stimulants dissolved in a solvent was diluted at the same ratio as the stimulants with T3-free Bullet Kit REGM (BIO WHITTAKER) to prepare a solution, and 500 μl of the solution was added to each well of RPTEC and HRCE, and the cells were cultured. d) 0.5, 1, 2, 4, 6 and 8 hours after addition of the stimulants, the cells were recovered respectively, and total RNA was prepared by using RNeasy Mini Kit (Quiagen). The total RNA thus prepared was subjected to reverse transcription reaction using TaqMan Reverse Transcription Reagents (manufactured by Applied Biosystems, Inc.) to prepare the cDNA. (3) Analysis of Expression of Human TCH229 Gene in Commercially Available Normal Human Cells
(§2) The expression level (copy number) of human TCH229 in the cDNAs prepared from the normal human cells and the PRTEC and HRCE stimulated with the stimulants was measured by TaqMan PCR with the 2 primer DNAs used in Example 4 (that is, primer TMF (SEQ ID NO: 19) and primer TMR (SEQ ID NO: 20)) and TaqMan probe P1 (SEQ ID NO: 21). For the cDNAs prepared respectively from the normal human cells and the PRTEC and HRCE stimulated with the stimulants, the expression level (copy number) of ribosomal RNA (18S) was assayed by using Eukaryotic 18S rRNA Pre-Developed TaqMan Assay Reagents (manufactured by Applied Biosystems, Inc.), and the expression level (copy number) of human glyceraldehyde-3-phosphate dehydrogenase (GAPDH) was also assayed by using human GAPD (GAPDH) (manufactured by Applied Biosystems, Inc.). […]

human TCH229 [2] = experiment: Expression of human TCH229 gene in HRCE stimulated with stimulants (TaqMan PCR); assay type: cell-based; conditions: stimulant 10 ng/ml, 0.5-8 hours after addition
Procedure: as §1, §2

## CCCCCCCCCCCCCC(=O)O[C@@H]1[C@@H](C)[C@@]2(O)[C@@H](C=C(CO)C[C@]3(O)C(=O)C(C)=C[C@@H]23)[C@@H]2C(C)(C)[C@]12OC(C)=O [PMA]
Human TCH229 [1]
  fluctuation of expression of human TCH229 (mRNA, relative to human GAPDH) as compared with the control: decreased depending on culture time
Human TCH229 [2]
  fluctuation of expression of human TCH229 (mRNA, relative to human GAPDH) as compared with the control: decreased depending on culture time

## IL-1β: stimulant, IL-1β (Genzyme)
Human TCH229 [1]
  fluctuation of expression of human TCH229 (mRNA, relative to human GAPDH) as compared with the control: decreased depending on culture time
Human TCH229 [2]
  fluctuation of expression of human TCH229 (mRNA, relative to human GAPDH) as compared with the control: decreased depending on culture time

## TGF-β1: stimulant, TGF-β1 (Wako Pure Chemical Industries, Ltd.)
Human TCH229 [1]
  fluctuation of expression of human TCH229 (mRNA, relative to human GAPDH) as compared with the control: decreased depending on culture time
Human TCH229 [2]
  fluctuation of expression of human TCH229 (mRNA, relative to human GAPDH) as compared with the control: decreased depending on culture time

## TNF-α
Human TCH229 [1]
  fluctuation of expression of human TCH229 (mRNA, relative to human GAPDH) as compared with the control: decreased depending on culture time
Human TCH229 [2]
  fluctuation of expression of human TCH229 (mRNA, relative to human GAPDH) as compared with the control: decreased depending on culture time
